Data as given in patent publication US10442807B2, “Aryl substituted bicyclic compounds as herbicides” (FMC Corporation, priority 2015, dated 2019).

Experiments:
Type in all cases: in vivo
corn (Zea mays) = experiment: Test A postemergence application, visual injury rating; settings: approx. 10 d, 0 = no effect, 100 = complete control
In short: (§1)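 Rated visually against untreated controls after approx. 10 d in greenhouse, scale 0 = no effect, 100 = complete control. Seeded loam/sand blend given directed soil spray preemergence, or plants sprayed at one- to two-leaf stage, 2-10 cm tall; surfactant-containing non-phytotoxic solvent formulation.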

[1] = system: pigweed (Amaranthus retroflexus); experiment: as above; settings: approx. 10 d, 0 = no effect, 100 = complete control
In short: as §1

[2] = system: barnyardgrass (Echinochloa crus-galli); experiment: as above; settings: approx. 10 d, 0 = no effect, 100 = complete control
In short: as §1

[3] = system: galium (catchweed bedstraw, Galium aparine); experiment: as above; settings: approx. 10 d, 0 = no effect, 100 = complete control
In short: as §1

[4] = system: blackgrass (Alopecurus myosuroides); experiment: as above; settings: approx. 10 d, 0 = no effect, 100 = complete control
In short: as §1

[5] = system: wheat (Triticum aestivum); experiment: as above; settings: approx. 10 d, 0 = no effect, 100 = complete control
In short: as §1

[6] = system: ryegrass, Italian (Italian ryegrass, Lolium multiflorum); experiment: as above; settings: approx. 10 d, 0 = no effect, 100 = complete control
In short: as §1

kochia (Kochia scoparia) [7] = experiment: as above; settings: approx. 10 d, 0 = no effect, 100 = complete control
In short: as §1

[8] = system: ragweed (common ragweed, Ambrosia elation); experiment: as above; settings: approx. 10 d, 0 = no effect, 100 = complete control
In short: as §1

[9] = system: foxtail, giant (giant foxtail, Setaria faberii); experiment: as above; settings: approx. 10 d, 0 = no effect, 100 = complete control
In short: as §1

[10] = system: pigweed (Amaranthus retroflexus); experiment: Test A preemergence, directed soil spray, visual injury rating; settings: approx. 10 d, 0 = no effect, 100 = complete control
In short: as §1

[11] = system: barnyardgrass (Echinochloa crus-galli); experiment: as above; settings: approx. 10 d, 0 = no effect, 100 = complete control
In short: as §1

[12] = system: ryegrass, Italian (Italian ryegrass, Lolium multiflorum); experiment: as above; settings: approx. 10 d, 0 = no effect, 100 = complete control
In short: as §1

kochia (Kochia scoparia) [13] = experiment: as above; settings: approx. 10 d, 0 = no effect, 100 = complete control
In short: as §1

[14] = system: ragweed (common ragweed, Ambrosia elation); experiment: as above; settings: approx. 10 d, 0 = no effect, 100 = complete control
In short: as §1

[15] = system: foxtail, giant (giant foxtail, Setaria faberii); experiment: as above; settings: approx. 10 d, 0 = no effect, 100 = complete control
In short: as §1

[16] = system: sedge, umbrella (small-flower umbrella sedge, Cyperus difformis); experiment: Test B flooded paddy test, visual plant response rating; settings: 250 g ai/ha; applied to paddy water at 2-leaf stage; rated after 13 to 15 days; scale 0 to 100, 0 is no effect, 100 is complete control
In short: (§2)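 Ratings compare treated with control plants by eye, scored 0 (no effect) to 100 (complete control). Application is into paddy water 3 cm deep over soil, maintained at that level for 13–15 days under greenhouse conditions.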

[17] = system: barnyardgrass (Echinochloa crus-galli); experiment: as above; settings: 250 g ai/ha; applied to paddy water at 2-leaf stage; rated after 13 to 15 days; scale 0 to 100, 0 is no effect, 100 is complete control
In short: as §2

rice (Oryza sativa) = experiment: as above; settings: 250 g ai/ha; applied to paddy water at 2-leaf stage; rated after 13 to 15 days; scale 0 to 100, 0 is no effect, 100 is complete control
In short: as §2

[18] = system: ducksalad (Heteranthera limosa); experiment: as above; settings: 250 g ai/ha; applied to paddy water at 2-leaf stage; rated after 13 to 15 days; scale 0 to 100, 0 is no effect, 100 is complete control
In short: as §2

SMILES	Corn plant response rating (0 to 100 scale) (corn (Zea mays); 125 g ai/ha)	Corn plant response rating (0 to 100 scale) (corn (Zea mays); 500 g ai/ha)	Pigweed plant response rating (0 to 100 scale) ([1]; 125 g ai/ha)	Pigweed plant response rating (0 to 100 scale) ([1]; 500 g ai/ha)	Barnyardgrass plant response rating (0 to 100 scale) ([2]; 125 g ai/ha)	Barnyardgrass plant response rating (0 to 100 scale) ([2]; 500 g ai/ha)	Galium plant response rating (0 to 100 scale) ([3]; 125 g ai/ha)	Galium plant response rating (0 to 100 scale) ([3]; 500 g ai/ha)	Blackgrass plant response rating (0 to 100 scale) ([4]; 125 g ai/ha)	Blackgrass plant response rating (0 to 100 scale) ([4]; 500 g ai/ha)	Wheat plant response rating (0 to 100 scale) ([5]; 125 g ai/ha)	Wheat plant response rating (0 to 100 scale) ([5]; 500 g ai/ha)	Ryegrass, Italian plant response rating (0 to 100 scale) ([6]; 125 g ai/ha)	Ryegrass, Italian plant response rating (0 to 100 scale) ([6]; 500 g ai/ha)	Kochia plant response rating (0 to 100 scale) (kochia (Kochia scoparia) [7]; 125 g ai/ha)	Kochia plant response rating (0 to 100 scale) (kochia (Kochia scoparia) [7]; 500 g ai/ha)	Ragweed plant response rating (0 to 100 scale) ([8]; 125 g ai/ha)	Ragweed plant response rating (0 to 100 scale) ([8]; 500 g ai/ha)	Foxtail, Giant plant response rating (0 to 100 scale) ([9]; 125 g ai/ha)	Foxtail, Giant plant response rating (0 to 100 scale) ([9]; 500 g ai/ha)	further results
Cc1nnc2n1CC(c1ccc(Cl)cc1)C2C(=O)Nc1ccccc1F (stereo not drawn) [Compound 21]	0	0	0	0	0	40	0	50	0	20	0	0	0	20	0	0	0	0	0	70	Pigweed plant response rating (0 to 100 scale) ([10]; 125 g ai/ha): 0; Pigweed plant response rating (0 to 100 scale) ([10]; 500 g ai/ha): 0; Barnyardgrass plant response rating (0 to 100 scale) ([11]; 125 g ai/ha): 0; Barnyardgrass plant response rating (0 to 100 scale) ([11]; 500 g ai/ha): 40; Ryegrass, Italian plant response rating (0 to 100 scale) ([12]; 125 g ai/ha): 40; Ryegrass, Italian plant response rating (0 to 100 scale) ([12]; 500 g ai/ha): 40; Kochia plant response rating (0 to 100 scale) (kochia (Kochia scoparia) [13]; 125 g ai/ha): 0; Kochia plant response rating (0 to 100 scale) (kochia (Kochia scoparia) [13]; 500 g ai/ha): 40; Ragweed plant response rating (0 to 100 scale) ([14]; 125 g ai/ha): 0; Ragweed plant response rating (0 to 100 scale) ([14]; 500 g ai/ha): 0; Foxtail, Giant plant response rating (0 to 100 scale) ([15]; 125 g ai/ha): 0; Foxtail, Giant plant response rating (0 to 100 scale) ([15]; 500 g ai/ha): 70; Plant response rating, Flood, Sedge, Umbrella [16]: 0; Plant response rating, Flood, Barnyardgrass [17]: 0; Plant response rating, Flood, Rice (rice (Oryza sativa)): 0; Plant response rating, Flood, Ducksalad [18]: 40
O=C(Nc1cccc(F)c1F)C1c2nnc(C(F)(F)F)n2CC1c1ccc(C(F)(F)F)cc1 (stereo not drawn) [Compound 22, N-(2,3-difluorophenyl)-6,7-dihydro-3-(trifluoromethyl)-6-[4-(trifluoromethyl)phenyl]-5H-pyrrolo[2,1-c]-1,2,4-triazole-7-carboxamide]	0	0	0	0	0	0	0	0	0	0	0	0	0	0	0	0	0	0	0	0	Pigweed plant response rating (0 to 100 scale) ([10]; 125 g ai/ha): 0; Pigweed plant response rating (0 to 100 scale) ([10]; 500 g ai/ha): 0; Barnyardgrass plant response rating (0 to 100 scale) ([11]; 125 g ai/ha): 0; Barnyardgrass plant response rating (0 to 100 scale) ([11]; 500 g ai/ha): 20; Ryegrass, Italian plant response rating (0 to 100 scale) ([12]; 125 g ai/ha): 0; Ryegrass, Italian plant response rating (0 to 100 scale) ([12]; 500 g ai/ha): 0; Kochia plant response rating (0 to 100 scale) (kochia (Kochia scoparia) [13]; 125 g ai/ha): 0; Kochia plant response rating (0 to 100 scale) (kochia (Kochia scoparia) [13]; 500 g ai/ha): 0; Ragweed plant response rating (0 to 100 scale) ([14]; 125 g ai/ha): 0; Ragweed plant response rating (0 to 100 scale) ([14]; 500 g ai/ha): 0; Foxtail, Giant plant response rating (0 to 100 scale) ([15]; 125 g ai/ha): 0; Foxtail, Giant plant response rating (0 to 100 scale) ([15]; 500 g ai/ha): 30; Plant response rating, Flood, Sedge, Umbrella [16]: 0; Plant response rating, Flood, Barnyardgrass [17]: 0; Plant response rating, Flood, Rice (rice (Oryza sativa)): 0; Plant response rating, Flood, Ducksalad [18]: 30
